{"source": "paper PMC7934871", "about": "(JCI Insight, 2021)", "test_system": "B16 melanoma", "assay": "B16 melanoma lung metastasis in C57BL/6 mice", "assay_type": "in vivo, mouse", "excerpt": "Figure 7 PS-acet.-STAT3 peptide treatment efficiently reduces mouse melanoma lung metastasis. (A) Systemic PS-acet.-STAT3 peptide treatment reduces B16 lung nodules in syngeneic mouse model compared with control treatments. The B16 lung nodules in mice treated with the indicated STAT3 peptides and vehicle (n = 5) were visualized by IF staining of gp100 and quantified by confocal microscopy and Zen software. The levels of phosphorylation of STAT3 (p-STAT3), CD69, and Foxp3 in the tumor or tumor-infiltrating CD8^+ T or CD4^+ T cells were detected by IF staining followed by confocal microscopy in B16 metastatic lung nodules upon treatments with vehicle, PO- or PS-acet.-STAT3, PS-STAT3-K685R, or PS-unacet.-STAT3 peptides as indicated. Images are representative of 5 lungs per experimental group. Scale bars: 20 μm (CD69, CD8, CD4, p-STAT3, and Foxp3) and 100 μm (gp100). White arrows indicate the immune cells. Insets: original magnification, ×40. (B) The graphs show the quantification of gp100 and p-STAT3 expression levels (MFI) or the cell population (%) of CD69^+ in CD8^+ or p-STAT3^+ in CD4^+ or Foxp3^+ in CD4^+ (data represent 5 lungs per group, n = 5). SD is shown. One-way ANOVA; ****P < 0.001.\nMouse care and experimental procedures were performed under pathogen-free conditions in accordance with established institutional guidance and approved IACUC protocols from Research Animal Care Committee of the City of Hope. For s.c. tumor challenge, 5 × 10^6 HCT116 cells were injected into NSG mice from The Jackson Laboratory or animal resource core facility at the City of Hope. After tumors reached an average size of 80~100 mm^3, mice were locally or intravenously treated with 1 mg/kg of PO- or PS-peptides (Anaspec) every day or every other day. Control animals were treated with the equal volume of HBSS (Invitrogen, Thermo Fisher Scientific). Tumor growth was measured by a digital caliper every other day. To study the effects of the modified peptides at protein and gene levels, mice were euthanized 4–6 weeks after tumor injection. B16 melanoma lung metastasis was performed by injecting 0.5 × 10^6 B16 cells into bloodstream of C57BL/6 mice (The Jackson Laboratory). One day after tumor challenge, mice were treated intravenously (retro-orbitally) with 1 mg/kg of PO- or PS-acet.-STAT3, PS-unacet.-STAT3, or PS-STAT3-K685R peptides every other day until the endpoint as indicated. Control mice were treated with HBSS. Lungs were excised from the mice, and B16 nodules were visualized by gp100 staining. Lungs were then analyzed for immune responses by immunostaining followed by confocal imaging. For mouse PDAC model, 5 × 10^6 KPC mouse cells were mixed with Matrigel and subcutaneously injected into C57BL/6 mice (The Jackson Laboratory). After tumors reached an average size of 80~100 mm^3, mice were intravenously treated with 1 mg/kg of PO- or PS-Gp130, PS-oligo, PS-SC-MYC, PS-MYC. or combined PS-Gp130/PS-MYC (0.5 mg/kg, 0.5 mg/kg) (Anaspec) every other day for 18 days. Control animals were treated with the equal volume of HBSS (Invitrogen, Thermo Fisher Scientific). Tumor growth was measured by a digital caliper every other day. To study the effects of the modified peptides at protein and gene levels, mice were euthanized at the endpoint as indicated."}
{"substance": "PDIPKEEAFGK685(Ac)YCRPESQEHPC-linker-T*C*C*A*T*G*A*G*C*T*T*C*C*T*G*A*T*G*C*T [PS-acet.-STAT3 peptide]", "values": [{"measurement": "metastatic lung nodules", "setting": "B16 i.v. in C57BL/6 mice, 1 mg/kg i.v. every other day, gp100 staining, n = 5", "result": "striking reduction"}, {"measurement": "STAT3 activation (p-STAT3) in tumor cells and CD4+ T cells", "setting": "B16 lung nodules, IF staining, confocal", "result": "significantly decreased"}, {"measurement": "infiltration of CD69+ activated CD8+ T cells in metastatic B16 lung nodules", "setting": "IF staining, confocal", "result": "increased"}, {"measurement": "tumor-associated FoxP3+CD4+ T cells (regulatory T cells)", "setting": "IF staining, confocal", "result": "concomitantly reduced"}]}
